PMC8199339, “Propellanes as Rigid Scaffolds for the Stereodefined Attachment of σ-Pharmacophoric Structural Elements to Achieve σ Affinity” (International Journal of Molecular Sciences, 2021)
Like-named read-outs stand apart in the source and are kept apart here.

Legend:
σ1 receptor [1] = target: T1, σ1 receptor (Cavia porcellus, UniProt Q60492); experiment: σ1 receptor binding assay, radioligand [3H]-(+)-pentazocine, guinea pig brain membrane preparation; details: for inhibition at 1 µM / inhibition of the radioligand binding, σ1: test compound concentration of 1 µM
T1 construct: thawed membrane preparation of guinea pig brain; tissue Harlan-Winkelmann, Borchen, Germany (animal organs); host or cells: guinea pig brain membrane homogenate
T1 sequence (Q60492 whole entry): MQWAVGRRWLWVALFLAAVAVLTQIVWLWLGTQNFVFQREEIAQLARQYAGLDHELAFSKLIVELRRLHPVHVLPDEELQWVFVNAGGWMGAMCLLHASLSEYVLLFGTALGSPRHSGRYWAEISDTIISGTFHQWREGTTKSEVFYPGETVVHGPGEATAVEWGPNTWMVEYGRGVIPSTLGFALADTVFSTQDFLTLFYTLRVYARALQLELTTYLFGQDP

σ2 receptor [2] = target: T2, σ2 receptor (Rattus norvegicus, UniProt Q5U3Y7); experiment: σ2 receptor binding assay, radioligand [3H]di-o-tolylguanidine, rat liver membrane preparation; details: for inhibition at 1 µM / inhibition of the radioligand binding, σ2: test compound concentration of 1 µM; for inhibition of the radioligand binding, σ2: 1 µM
T2 construct: The thawed rat liver membrane preparation; tissue Harlan-Winkelmann, Borchen, Germany (animal organs); host or cells: rat liver membrane homogenate
T2 sequence (Q5U3Y7 1-176): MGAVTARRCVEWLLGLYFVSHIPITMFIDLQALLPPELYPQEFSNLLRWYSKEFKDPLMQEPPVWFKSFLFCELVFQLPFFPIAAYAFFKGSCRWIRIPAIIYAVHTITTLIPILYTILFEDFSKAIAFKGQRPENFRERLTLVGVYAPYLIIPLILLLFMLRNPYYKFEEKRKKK

σ1 receptor [3] = target: T1, σ1 receptor; details: cited from earlier work
σ2 receptor [4] = target: T2, σ2 receptor; details: cited from earlier work; for inhibition of the radioligand binding, σ2: test compound concentration of 1 µM, already reported, 1 µM
σ1 receptor [5] = details: cited from earlier work; for Ki: Figure 2
σ2 receptor [6] = details: cited from earlier work; for Ki: Figure 2
[7] = [3H]-(+)-pentazocine, guinea pig brain, mean of three experiments (± SEM), values without SEM mean of two, read-out: Ki (nM) σ1
[8] = azapropellanes 9, already reported

Structure (SMILES)	inhibition at 1 µM (σ1 receptor [1])	inhibition at 1 µM (σ2 receptor [2])	melting point	further results
COc1ccc(C)cc1NC(=O)NC1CC23CCCCC2(CCC3)C1 (stereo not drawn) [23c, 1-(2-Methoxy-5-methylphenyl)-3-(syn- and anti-[4.3.3]propellan-8-yl)urea]	0%	0%	215 to 220 °C	
COc1ccc(C)cc1NC(=O)OC1CC23CCCCC2(C1)CN(Cc1ccccc1)CC3 (stereo not drawn) [anti-5]				Ki (σ1 receptor [3]; propellanamines 4a and azapropellanes 5, already reported): 82 ± 54 nM; inhibition of the radioligand binding, σ2 (σ2 receptor [4]): 8%
C1CCC(CNC2CC34CCCCC3(CCC4)C2)CC1 (stereo not drawn) [compound 18, syn- and anti-N-Cyclohexylmethyl[4.3.3]propellan-8-amine]			108 to 111 °C	Ki (σ1 receptor [1]; Ki (nM) σ1): 34 ± 11 nM; Ki (σ2 receptor [2]; read-out: Ki (nM) σ2): 101 nM
c1ccc2c(CCNC3CC45CCCCC4(CCC5)C3)c[nH]c2c1 (stereo not drawn) [compound 15, syn- and anti-N-[2-(Indol-3-yl)ethyl]-[4.3.3]propellan-8-amine]			109 to 111 °C	Ki (σ1 receptor [1]; Ki (nM) σ1): 598 nM; Ki (σ2 receptor [2]): 974 nM
OC1CC23CCCCC2(C1)CC(NCc1ccccc1)C3 (mixture of isomers) [11-anti-13, [(8-anti-11-anti and 8-anti-11-syn)-11-(Benzylamino)[4.3.3]propellan-8-ol]	29%		121 to 123 °C	Ki (σ2 receptor [2]; read-out: Ki (nM) σ2): 1070 nM
COc1ccc(CN2CC3CCCC2CN3Cc2ccccc2)cc1 (stereo not shown) [compound 2]				Ki (σ1 receptor [5]): 0.00091 µM; selectivity for σ1 against/over the σ2 subtype (σ1 receptor [5]): more than 40 fold; Ki (σ2 receptor [6]): 0.039 µM
COc1ccc(C)cc1NC(=O)N(Cc1ccccc1)C1CC23CCCCC2(CC(=O)C3)C1 (stereo not drawn) [anti-21, 1 -Benzyl-3-(2-methoxy-5-methylphenyl)-1-(anti-11-oxo-[4.3.3]propellan-8-yl)urea]			133 to 136 °C	inhibition of the radioligand binding, σ1 (σ1 receptor [1]; 1 µM): 5%; inhibition of the radioligand binding, σ2 (σ2 receptor [2]): 12%
CN(C)c1ccc(CNC2CC34CCCCC3(CCC4)C2)cc1 (stereo not drawn) [compound 17, syn- and anti-N-(4-(Dimethylaminobenzyl)-[4.3.3]propellan-8-amine]		1%	89 to 91 °C	Ki (σ1 receptor [1]; [7]): 1200 nM
c1ccc(CN2CC34CCCCC3(CCC4)C2)cc1 (stereo not shown) [9a]				selectivity for the σ1 receptor over the σ2 receptor (σ1 receptor [1]; σ1 over σ2): at least 10 fold; Ki (σ1 receptor [3]; [8]): 17 ± 12 nM; Ki (σ2 receptor [4]; [8]): 190 nM
COc1ccc(C)cc1NC(=O)OC1CC23CCCCC2(C1)CN(Cc1ccccc1)CC3 (stereo not drawn) [syn-5]				inhibition of the radioligand binding, σ1 (σ1 receptor [3]; test compound concentration of 1 µM, already reported): 12%; inhibition of the radioligand binding, σ2 (σ2 receptor [4]): 0%
FCC[C@@H]1OC2(CCN(Cc3ccccc3)CC2)c2ccccc21 [compound 1, (S)-fluspidine]				Ki (σ1 receptor [5]): 0.0023 µM; selectivity for σ1 against/over the σ2 subtype (σ1 receptor [5]): 300 fold; Ki (σ2 receptor [6]): 0.897 µM
COc1ccc(C)cc1NC(=O)N(Cc1ccccc1)C1CC23CCCCC2(CC(=O)C3)C1 (stereo not drawn) [syn-21, 1 -Benzyl-3-(2-methoxy-5-methylphenyl)-1-(syn-11-oxo-[4.3.3]propellan-8-yl)urea]		14%	168 to 170 °C	inhibition of the radioligand binding, σ1 (σ1 receptor [1]; 1 µM): 13%
O=C(Nc1ccc(F)c(F)c1)NC1CC23CCCCC2(CC(O)C3)C1 (mixture of isomers) [8-syn-26, 1-(3,4-Difluorophenyl)-3-(8-syn-11-syn- and 8-syn-11-anti-11-hydroxy[4.3.3]-propellan-8-yl)urea]	10%	0%	171 to 178 °C	
COc1ccc(C)cc1NC(=O)N(Cc1ccccc1)C1CC23CCCCC2(CC(O)C3)C1 (stereo not drawn) [syn,anti-22, 1 -Benzyl-1-{(8-syn,11-anti)-11-hydroxy[4.3.3]propellan-8-yl}-3-(2-methoxy-5-methylphenyl)urea]				inhibition of the radioligand binding, σ1 (σ1 receptor [1]): 0%; inhibition of the radioligand binding, σ2 (σ2 receptor [2]): 8%
O=C(Nc1ccc(F)c(F)c1)NC1CC23CCCCC2(CCC3)C1 (stereo not drawn) [23d, 1-(3,4-Difluorophenyl)-3-(syn- and anti-[4.3.3]propellan-8-yl)urea]	0%	0%	168 to 175 °C	
COc1ccc(C)cc1NC(=O)N(Cc1ccccc1)C1CC23CCCCC2(CC(O)C3)C1 (stereo not drawn) [anti,syn-22, 1-benzyl-1-{(8-anti,11-syn)-11-hydroxy[4.3.3]propellan-8-yl}-3-(2-methoxy-5-methylphenyl)urea]	0%			inhibition of the radioligand binding, σ2 (σ2 receptor [2]): 17%
OC1CC23CCCCC2(C1)CC(NCc1ccccc1)C3 (mixture of isomers) [11-syn-13, [(8-syn-11-syn and 8-syn-11-anti)-11-(Benzylamino)[4.3.3]propellan-8-ol]		27%		Ki (σ1 receptor [1]; [7]): 619 nM
O=C(Nc1ccccc1)NC1CC23CCCCC2(CCC3)C1 (stereo not drawn) [23a, 1 -Phenyl-3-(syn- and anti-[4.3.3]propellan-8-yl)urea]	0%	15%	134 to 138 °C	
c1ccc(CNC2CC34CCCCC3(C2)CC2(C4)OCCO2)cc1 (stereo not drawn) [anti-14, (11′-anti)-Spiro-([1,3]dioxolane-2,8′-(N-benzyl[4.3.3]propellan))-11′-amine]				Ki (σ1 receptor [1]; [7]): 1400 nM; inhibition of the radioligand binding, σ2 (σ2 receptor [2]): 0%
COc1ccc(C)cc1NC(=O)OC1CC23CCCCC2(CC(NCc2cc(C(F)(F)F)cc(C(F)(F)F)c2)C3)C1 (stereo not drawn) [8-anti-4f, [(8-anti-11-anti and 8-anti-11-syn)-11-[(3,5-Bis(trifluoromethyl)benzylamino]-[4.3.3]propellan-8-yl] N-(2-methoxy-5-methylphenyl)carbamate]	0%	0%		
COc1ccc(C)cc1NC(=O)OC1CC23CCCCC2(CC(NCCO)C3)C1 (stereo not drawn) [8-anti-4s, [(8-anti-11-anti and 8-anti-11-syn)-11-(2-Hydroxyethyl-1-amino)[4.3.3]propellan-8-yl] N-(2-methoxy-5-methylphenyl)carbamate]	12%	0%		
COc1ccc(C)cc1NC(=O)OC1CC23CCCCC2(CC(NCCCN)C3)C1 (stereo not drawn) [8-anti-4r, [(8-anti-11-anti and 8-anti-11-syn)-11-[(3-Aminopropyl)amino][4.3.3]propellan-8-yl] N-(2-methoxy-5-methylphenyl)carbamate]	16%	0%	74 to 76 °C	
O=C(NC1CCCCC1)NC1CC23CCCCC2(CCC3)C1 (stereo not drawn) [23b, 1 -Cyclohexyl-3-(syn- and anti-[4.3.3]propellan-8-yl)urea]	0%	0%	187 to 193 °C	
COc1ccc(C)cc1NC(=O)OC1CC2CCCC(C1)N2Cc1ccccc1 (stereo not shown) [compound 3]				Ki (σ1 receptor [5]): 0.0925 µM; Ki (σ2 receptor [6]): 0.0031 µM; preference for the σ2 receptor (σ2 receptor [6]; σ2 over σ1): 30 fold
COc1ccc(C)cc1NC(=O)OC1CC23CCCCC2(CC(NCc2ccc(OC)c(OC)c2)C3)C1 (stereo not drawn) [8-anti-4b, [(8-anti-11-anti and 8-anti-11-syn)-11-(3,4-Dimethoxbenzylamino)[4.3.3]propellan-8-yl] N-(2-methoxy-5-methylphenyl)carbamate]	6%	1%		
COc1ccc(C)cc1NC(=O)OC1CC23CCCCC2(CC(NCCc2c[nH]c4ccccc24)C3)C1 (stereo not drawn) [8-syn-4k, [(8-syn-11-syn and 8-syn-11-anti)-11-[(2-(Indol-3-yl)ethylamino][4.3.3]propellan-8-yl] N-(2-methoxy-5-methylphenyl)carbamate]				Ki (σ1 receptor [1]; [7]): 983 nM; Ki (σ2 receptor [2]; read-out: Ki (nM) σ2): 1400 nM
COc1ccc(NC2CC34CCCCC3(C2)CC(OC(=O)Nc2cc(C)ccc2OC)C4)cc1 (stereo not drawn) [8-anti-4m, [(8-anti-11-anti and 8-anti-11-syn)-11-(4-Methoxyphenylamino)[4.3.3]propellan-8-yl] N-(2-methoxy-5-methylphenyl)carbamate]	11%	0%		
